Results from patent US11932634B2 (Gilead Sciences, Inc., priority 2021, dated 2024).
pEC50, pIC50: −log10 of the molar value.

Experiments:
[1] = tested on: Jurkat NFκB-luciferase cells; assay: Jurkat NFκB-Luciferase Assay; assay type: cell-based; details: Homo sapiens; Jurkat NFκB-luciferase cells activated with anti-CD3 antibody (OKT3), 2.5 hrs at 37° C., One-Glo Ex; geometric mean; read-out: DGK NFKb Luciferase EC50;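 note: bioluminescence read-out normalized to DMSO basal activation and to maximum enhancement at 1 µM compound, rising signal indicating stronger T-cell activation through DGKα inhibition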
Procedure: The activity of compounds was tested in a cell based NFκB reporter assay. Jurkat cells that are stably expressing a luciferase reporter construct under the transcriptional control of a NFκB reporter element were activated with an anti-CD3 antibody and luciferase levels were measured with a bioluminescence readout.
The day after, the excess antibody was washed out five times with 100 ul/well of assay medium (RPMI supplemented with 10% fetal bovine serum) using a Biotek EL406 instrument and leaving 20 µl of residual volume in each well. Jurkat NFκB-luciferase cells (Promega #) were harvested and diluted to 1 million cells/ml in assay medium. Sixty nanoliters of test compound dissolved in DMSO at various concentrations were dispensed into 384-well v-bottom polypropylene plates (Greiner) using a Labcyte Echo instrument. Thirty microliters of medium containing the Jurkat NFκB-luciferase cells were then dispensed using a Biotek MicroFlo instrument in each well of the compound-containing plate. The medium/cell/compound mixture was mixed with a Bravo instrument and 20 ul/well of the mixture was transferred to the anti-CD3-coated plate. The assay mixture was then incubated for 2.5 hrs at 37° C. followed by equilibration at 25° C. for 30 min. Forty microliters of One-Glo Ex (Promega) was then added to the assay mixture and luciferase activity was read on a Envision plate reader 7 minutes later.
Bioluminescence data were normalized based on maximum enhancement (1 micromolar of compound) and on basal activation (DMSO) controls. Least squares curve fittings were performed using a four-parameter variable slope nonlinear regression model. […] EC50 values from multiple experiments were averaged by geometric mean and the standard deviation was calculated.

human DGKα = target: T1, human DGKα (Homo sapiens, UniProt P23743); assay: DGKα Biochemical Activity Assay (ADP-Glo);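 note: recombinant enzyme converting diacylglycerol in lipid micelles with ATP, ADP formed detected by luminescence, IC50 from a four-parameter nonlinear fit, geometric mean across experiments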
T1 construct: purchased Carna Biosciences'; inferred from the same paragraph's 'obtained from Carna Biosciences')
T1 sequence (P23743 whole entry): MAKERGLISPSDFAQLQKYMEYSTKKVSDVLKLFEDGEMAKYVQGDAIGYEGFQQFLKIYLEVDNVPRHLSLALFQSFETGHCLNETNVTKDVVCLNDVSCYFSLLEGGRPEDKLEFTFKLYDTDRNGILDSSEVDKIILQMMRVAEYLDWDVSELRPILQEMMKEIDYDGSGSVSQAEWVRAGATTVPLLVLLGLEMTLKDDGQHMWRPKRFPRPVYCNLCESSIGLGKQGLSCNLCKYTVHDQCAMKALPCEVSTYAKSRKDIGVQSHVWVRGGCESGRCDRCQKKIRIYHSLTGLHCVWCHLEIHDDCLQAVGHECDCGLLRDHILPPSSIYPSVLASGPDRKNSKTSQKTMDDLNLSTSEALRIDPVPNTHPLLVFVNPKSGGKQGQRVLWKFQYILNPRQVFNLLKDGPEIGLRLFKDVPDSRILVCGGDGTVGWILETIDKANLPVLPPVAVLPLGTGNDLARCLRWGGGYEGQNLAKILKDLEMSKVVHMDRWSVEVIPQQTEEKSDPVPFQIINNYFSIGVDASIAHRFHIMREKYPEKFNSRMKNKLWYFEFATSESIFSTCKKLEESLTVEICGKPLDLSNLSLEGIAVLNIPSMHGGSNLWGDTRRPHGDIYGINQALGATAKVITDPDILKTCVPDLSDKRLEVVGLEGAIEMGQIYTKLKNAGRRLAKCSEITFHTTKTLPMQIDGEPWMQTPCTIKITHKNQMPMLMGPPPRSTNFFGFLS

SMILES	pEC50 [1]	pIC50 (human DGKα)
O=c1nc(N2CCCCc3c(Br)cncc32)c2c(F)c(F)ccc2[nH]1 [Example 148, 4-(6-bromo-2,3,4,5-tetrahydro-1H-pyrido[3,4-b]azepin-1-yl)-5,6-difluoroquinazolin-2(1H)-one]	8.56	7.36
O=c1nc(N2CCCCc3c(Br)cncc32)c2c(F)cccc2[nH]1 [Example 149, 4-(6-bromo-2,3,4,5-tetrahydro-1H-pyrido[3,4-b]azepin-1-yl)-5-fluoroquinazolin-2(1H)-one]	7.47	6.82
CC1(C#Cc2cncc3c2CCCCN3c2nc(=O)[nH]c3ccc(F)c(F)c23)CC1 [Example 150, 5,6-difluoro-4-(6-((1-methylcyclopropyl)ethynyl)-2,3,4,5-tetrahydro-1H-pyrido[3,4-b]azepin-1-yl)quinazolin-2(1H)-one]	9.08	7.95
O=c1nc(N2CCCCc3c(C#CC4(C(F)(F)F)CC4)cncc32)c2c(F)c(F)ccc2[nH]1 [Example 151, 5,6-difluoro-4-(6-((1-(trifluoromethyl)cyclopropyl)ethynyl)-2,3,4,5-tetrahydro-1H-pyrido[3,4-b]azepin-1-yl)quinazolin-2(1H)-one]	9.02	7.75
CC1(C#Cc2cncc3c2CCCCN3c2nc(=O)[nH]c3cccc(F)c23)CC1 [Example 152, 5-fluoro-4-(6-((1-methylcyclopropyl)ethynyl)-2,3,4,5-tetrahydro-1H-pyrido[3,4-b]azepin-1-yl)quinazolin-2(1H)-one]	9.17	7.79
CC(C)(O)C#Cc1cccc2c1COCCN2c1nc(=O)[nH]c2c(F)ccc(F)c12 [Example 155]	7.27	7.79
O=c1nc(N2CCCCc3c(C#CC4(C(F)(F)F)CC4)cccc32)c2c(F)cccc2[nH]1 [Example 156, 5-fluoro-4-(6-((1-(trifluoromethyl)cyclopropyl)ethynyl)-2,3,4,5-tetrahydro-1H-benzo[b]azepin-1-yl)quinazolin-2(1H)-one]	9.51	7.65
CC1(C#Cc2cccc3c2CCCCN3c2nc(=O)[nH]c3cccc(F)c23)CC1 [Example 157, 5-fluoro-4-(6-((1-methylcyclopropyl)ethynyl)-2,3,4,5-tetrahydro-1H-benzo[b]azepin-1-yl)quinazolin-2(1H)-one]	9.24	7.58
CC(C)(C#Cc1cccc2c1COCCN2c1nc(=O)[nH]c2cccc(F)c12)NC(=O)C1(C(F)(F)F)CC1 [Example 158, N-(4-(1-(5-fluoro-2-oxo-1,2-dihydroquinazolin-4-yl)-1,2,3,5-tetrahydrobenzo[e][1,4]oxazepin-6-yl)-2-methylbut-3-yn-2-yl)-1-(trifluoromethyl)cyclopropane-1-carboxamide]	7.96	8.03
[2H]C([2H])([2H])n1c(=O)nc(N2CCCc3c(C#CC4(C)CC4)cncc32)c2c(F)c(F)ccc21 [Example 159, 5,6-difluoro-1-(methyl-d3)-4-(5-((1-methylcyclopropyl)ethynyl)-3,4-dihydro-1,7-naphthyridin-1(2H)-yl)quinazolin-2(1H)-one]	9.16	8.69
[2H]C([2H])([2H])n1c(=O)nc(N2CCCc3c(C#CC4(C(F)(F)F)CC4)cncc32)c2c(F)c(F)ccc21 [Example 160, 5,6-difluoro-1-(methyl-d3)-4-(5-((1-(trifluoromethyl)cyclopropyl)ethynyl)-3,4-dihydro-1,7-naphthyridin-1(2H)-yl)quinazolin-2(1H)-one]	9.03	8.27
[2H]C([2H])([2H])n1c(=O)nc(N2CCCc3c(C#CC4CCCN4C)cccc32)c2c(F)cccc21 (centres unmarked) [Example 161, 5-fluoro-4-[5-[2-(1-methylpyrrolidin-2-yl)ethynyl]-3,4-dihydro-2H-quinolin-1-yl]-1-(trideuteriomethyl)quinazolin-2-one]	8.55	7.78
[2H]C([2H])([2H])n1c(=O)nc(N2CCCc3c(C#CC4CCCN4CC(F)F)cccc32)c2c(F)cccc21 (centres unmarked) [Example 162, 4-[5-[2-[1-(2,2-difluoroethyl)pyrrolidin-2-yl]ethynyl]-3,4-dihydro-2H-quinolin-1-yl]-5-fluoro-1-(trideuteriomethyl)quinazolin-2-one]	8.90	8.03
O=c1nc(N2CCCCc3c(Br)cncc32)c2cc(F)ccc2[nH]1 [Example 163, 4-(6-bromo-2,3,4,5-tetrahydro-1H-pyrido[3,4-b]azepin-1-yl)-6-fluoroquinazolin-2(1H)-one]	8.05	7.31
CC1(C#Cc2cncc3c2CCCCN3c2nc(=O)[nH]c3ccc(F)cc23)CC1 [Example 164, 6-fluoro-4-(6-((1-methylcyclopropyl)ethynyl)-2,3,4,5-tetrahydro-1H-pyrido[3,4-b]azepin-1-yl)quinazolin-2(1H)-one]	9.16	8.25
O=c1nc(N2CCCCc3c(C#CC4(C(F)(F)F)CC4)cncc32)c2cc(F)ccc2[nH]1 [Example 165, 6-fluoro-4-(6-((1-(trifluoromethyl)cyclopropyl)ethynyl)-2,3,4,5-tetrahydro-1H-pyrido[3,4-b]azepin-1-yl)quinazolin-2(1H)-one]	9.20	7.91
[2H]C([2H])([2H])n1c(=O)nc(N2CCCc3c(C#CC4CCN(C)C4)cccc32)c2c(F)cccc21 (centres unmarked) [Example 166, 5-fluoro-4-[5-[2-(1-methylpyrrolidin-3-yl)ethynyl]-3,4-dihydro-2H-quinolin-1-yl]-1-(trideuteriomethyl)quinazolin-2-one]	8.17	7.15
[2H]C([2H])([2H])n1c(=O)nc(N2CCOCc3c(C#CC4CCCN4C)cccc32)c2c(F)cccc21 (centres unmarked) [Example 167, 5-fluoro-4-[6-[2-(1-methylpyrrolidin-2-yl)ethynyl]-3,5-dihydro-2H-4,1-benzoxazepin-1-yl]-1-(trideuteriomethyl)quinazolin-2-one]	7.96	7.73
[2H]C([2H])([2H])n1c(=O)nc(N2CCOCc3c(C#CC4CCCN4CC(F)F)cccc32)c2c(F)cccc21 (centres unmarked) [Example 168, 4-[6-[2-[1-(2,2-difluoroethyl)pyrrolidin-2-yl]ethynyl]-3,5-dihydro-2H-4,1-benzoxazepin-1-yl]-5-fluoro-1-(trideuteriomethyl)quinazolin-2-one]	8.81	8.27
[2H]C([2H])([2H])n1c(=O)nc(N2CCOCc3c(C#CC4CCCN4C(=O)C4CC4)cccc32)c2c(F)cccc21 (centres unmarked) [Example 169, 4-[6-[2-[1-(cyclopropanecarbonyl)pyrrolidin-2-yl]ethynyl]-3,5-dihydro-2H-4,1-benzoxazepin-1-yl]-5-fluoro-1-(trideuteriomethyl)quinazolin-2-one]	7.89	8.04
[2H]C([2H])([2H])n1c(=O)nc(N2CCOCc3c(C#CC4(C(F)(F)F)CCN(C)C4)cccc32)c2c(F)cccc21 (centres unmarked) [Example 170, 5-fluoro-4-[6-[2-[1-methyl-3-(trifluoromethyl)pyrrolidin-3-yl]ethynyl]-3,5-dihydro-2H-4,1-benzoxazepin-1-yl]-1-(trideuteriomethyl)quinazolin-2-one]	8.43	7.59
[2H]C([2H])([2H])n1c(=O)nc(N2CCOCc3c(C#CC4(C(F)(F)F)CCN(C5COC5)C4)cccc32)c2c(F)cccc21 (centres unmarked) [Example 171, 5-fluoro-4-[6-[2-[1-(oxetan-3-yl)-3-(trifluoromethyl)pyrrolidin-3-yl]ethynyl]-3,5-dihydro-2H-4,1-benzoxazepin-1-yl]-1-(trideuteriomethyl)quinazolin-2-one]	8.30	7.94
[2H]C([2H])([2H])n1c(=O)nc(N2CCOCc3c(C#CC4(C(F)(F)F)CCN(CC(F)F)C4)cccc32)c2c(F)cccc21 (centres unmarked) [Example 172, 4-[6-[2-[1-(2,2-difluoroethyl)-3-(trifluoromethyl)pyrrolidin-3-yl]ethynyl]-3,5-dihydro-2H-4,1-benzoxazepin-1-yl]-5-fluoro-1-(trideuteriomethyl)quinazolin-2-one]	8.85	8.09
[2H]C([2H])([2H])n1c(=O)nc(N2CCOCc3c(C#CC45CC(CN4CC(F)F)C5)cccc32)c2c(F)cccc21 [Example 173, 4-[6-[2-[2-(2,2-difluoroethyl)-2-azabicyclo[2.1.1]hexan-1-yl]ethynyl]-3,5-dihydro-2H-4,1-benzoxazepin-1-yl]-5-fluoro-1-(trideuteriomethyl)quinazolin-2-one]	9.40	9.14
[2H]C([2H])([2H])n1c(=O)nc(N2CCOCc3c(C#CC45CC(CN4C)C5)cccc32)c2c(F)cccc21 [Example 174, 5-fluoro-4-[6-[2-(2-methyl-2-azabicyclo[2.1.1]hexan-1-yl)ethynyl]-3,5-dihydro-2H-4,1-benzoxazepin-1-yl]-1-(trideuteriomethyl)quinazolin-2-one]	7.48	7.18
[2H]C([2H])([2H])n1c(=O)nc(N2CCOCc3c(C#CC(C)(C)N)cccc32)c2c(F)cccc21 [Example 175, 4-(6-(3-amino-3-methylbut-1-yn-1-yl)-2,3-dihydrobenzo[e][1,4]oxazepin-1(5H)-yl)-5-fluoro-1-(methyl-d3)quinazolin-2(1H)-one]	7.67	6.92
[2H]C([2H])([2H])n1c(=O)nc(N2CCOCc3c(C#CC(C)(C)NC(=O)C4(C(F)(F)F)CC4)cccc32)c2c(F)cccc21 [Example 176, N-(4-(1-(5-fluoro-1-(methyl-d3)-2-oxo-1,2-dihydroquinazolin-4-yl)-1,2,3,5-tetrahydrobenzo[e][1,4]oxazepin-6-yl)-2-methylbut-3-yn-2-yl)-1-(trifluoromethyl)cyclopropane-1-carboxamide]	8.27	8.62
[2H]C([2H])([2H])n1c(=O)nc(N2CCOCc3c(C#Cc4coc(C)n4)cccc32)c2c(F)cccc21 [Example 177, 5-fluoro-1-(methyl-d3)-4-(6-((2-methyloxazol-4-yl)ethynyl)-2,3-dihydrobenzo[e][1,4]oxazepin-1(5H)-yl)quinazolin-2(1H)-one]	7.72	7.76
